Results taken from patent US20160046618A1, “Cyclopropyl Fused Thiazin-2-Amine Compounds as Beta-Secretase Inhibitors and Methods of Use” (AMGEN INC., priority 2014, published 2016).
Read-outs that look alike come from different tables or passages of the source.

Experiments:
human recombinant BACE1 = human recombinant BACE1 (Homo sapiens (Human), UniProt P56817); assay: In vitro enzymatic BACE1 FRET assay; format: biochemical; conditions: read-out: IC50 IP (μM) BACE1 enzyme
Experimental: (§1) These recombinant proteins were further purified using Ni-NTA affinity chromatography (Qiagen). […] This assay is effectively started by the addition of FRET substrate (50 nM) and the combination is incubated for one hour. The FRET assay is terminated by addition of Tris buffer, which raises the pH to neutrality, and the fluorescence is determined. The FRET substrate is a peptide with commercially available fluorophore and quencher, on opposite sides of the BACE cleavage site. Proteolytic cleavage of the FRET substrate releases quenching of fluorescence (excitation 488 nm and emission 590 nm).

human recombinant BACE2 = human recombinant BACE2 (Homo sapiens (Human), UniProt Q9Y5Z0); assay: In vitro enzymatic BACE2 FRET assay; format: biochemical; conditions: read-out: IC50 IP (μM) BACE2 enzyme
Experimental: as §1

[1] = test system: Aβ40 in conditioned medium of cells stably expressing Amyloid Precursor Protein (APP); assay: In vitro BACE-1 cell-based assay (Aβ40 sandwich ELISA); conditions: read-out: IC50 IP (μM) BACE1 cell
Experimental: In Vitro BACE-1 Cell-Based Assay
The cell-based assay measures inhibition or reduction of Aβ40 in conditioned medium of test compound treated cells expressing amyloid precursor protein. Cells stably expressing Amyloid Precursor Protein (APP) were plated at a density of 40K cells/well in 96 well plates (Costar). The cells were cultivated for 24 hours at 37° C. and 5% CO2 in DMEM supplemented with 10% FBS. The test compounds were then added to cells in 10-point dose response concentrations with the starting concentration being either 100 μM or 10 μM. The compounds were diluted from stock solutions in DMSO and the final DMSO concentration of the test compounds on cells was 0.1%. After 24 h of incubation with the test compounds the supernatant conditioned media was collected and the Aβ40 levels were determined using a sandwich ELISA. The IC50 of the compound was calculated from the percent of control or percent inhibition of Aβ40 as a function of the concentration of the test compound.
The sandwich ELISA to detect Aβ40 was performed in 96 well microtiter plates, which were pre-treated with goat anti-rabbit IgG (Pierce). The capture and detecting antibody pair that were used to detect Aβ40 from cell supernatants were affinity purified pAb40 (Biosource) and biotinylated 6E10 (Signet Labs Inc.), respectively. The optimal concentration for the pAb40 antibody was 3 μg/ml in Superblock/TBS (Pierce) that was supplemented with 0.05% Tween 20 (Sigma). […] Cellular supernatants were incubated with the capture antibody for 3 h at 4° C., followed by 3 wash steps in TBS-tween (0.05%). The detecting antibody incubation was for 2 h at 4° C., again followed by the wash steps as described previously. The final readout of the ELISA is Time-Resolved Fluorescence (counts per minute) using Delfia reagents Streptavidin-Europium and Enhancement solutions (Perkin Elmer) and the Victor 2 multilabel counter (Perkin Elmer).

Recombinant Cat D = Recombinant Cat D (Homo sapiens (Human), UniProt P07339); assay: In vitro enzymatic Cathepsin D (Cat D) FRET assay; format: biochemical; conditions: read-out: IC50 IP (μM) CatD
Experimental: In Vitro Enzymatic Cathepsin D (Cat D) FRET (Fluorescence Resonance Energy Transfer) Assay
Recombinant Cat D was expressed in CHO cells. The assay buffer for CathepsinD is 0.05 M citrate pH 3.5, 10% DMSO final, 5 mM CHAPS. […] The assays are effectively started by the addition of different FRET substrates (20 nM for Cat D) and the combination is incubated for one hour. The FRET assay is terminated with by addition of Tris buffer, which raises the pH to neutrality, and the fluorescence is determined. The FRET substrate is a peptide with commercially available fluorophore and quencher, on opposite sides of the BACE cleavage site. The Cat D substrate peptide sequence is based on sequence #1 of Table 1 from Gulnik et al. FEBS Letters v413 p 379-384 1997. Proteolytic cleavage of the FRET substrate releases quenching of fluorescence (Cat D excitation 500 nm and emission 580 nm).

Recombinant Cat D, sequence (P07339 65-412): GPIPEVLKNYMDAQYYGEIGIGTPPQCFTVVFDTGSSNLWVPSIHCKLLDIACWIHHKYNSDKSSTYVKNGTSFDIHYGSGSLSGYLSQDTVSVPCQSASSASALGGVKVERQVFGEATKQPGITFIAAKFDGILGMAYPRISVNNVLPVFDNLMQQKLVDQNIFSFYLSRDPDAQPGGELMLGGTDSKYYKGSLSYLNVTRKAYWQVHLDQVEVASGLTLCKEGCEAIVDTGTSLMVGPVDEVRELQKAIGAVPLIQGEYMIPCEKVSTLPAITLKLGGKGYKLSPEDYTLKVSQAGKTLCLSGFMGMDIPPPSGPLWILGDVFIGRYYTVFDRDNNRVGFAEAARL
human recombinant BACE2, sequence (Q9Y5Z0 63-518): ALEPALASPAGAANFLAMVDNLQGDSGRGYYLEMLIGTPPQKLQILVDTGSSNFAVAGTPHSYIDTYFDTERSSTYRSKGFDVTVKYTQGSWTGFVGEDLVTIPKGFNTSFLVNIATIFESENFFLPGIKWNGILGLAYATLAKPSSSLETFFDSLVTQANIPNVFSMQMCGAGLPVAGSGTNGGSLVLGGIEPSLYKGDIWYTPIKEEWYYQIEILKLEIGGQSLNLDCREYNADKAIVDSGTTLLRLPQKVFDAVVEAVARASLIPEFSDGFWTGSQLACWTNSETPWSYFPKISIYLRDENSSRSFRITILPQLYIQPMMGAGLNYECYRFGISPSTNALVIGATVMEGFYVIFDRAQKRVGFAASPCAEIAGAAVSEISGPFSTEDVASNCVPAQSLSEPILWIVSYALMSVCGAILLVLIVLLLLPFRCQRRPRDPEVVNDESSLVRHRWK
human recombinant BACE1, sequence (P56817 46-501): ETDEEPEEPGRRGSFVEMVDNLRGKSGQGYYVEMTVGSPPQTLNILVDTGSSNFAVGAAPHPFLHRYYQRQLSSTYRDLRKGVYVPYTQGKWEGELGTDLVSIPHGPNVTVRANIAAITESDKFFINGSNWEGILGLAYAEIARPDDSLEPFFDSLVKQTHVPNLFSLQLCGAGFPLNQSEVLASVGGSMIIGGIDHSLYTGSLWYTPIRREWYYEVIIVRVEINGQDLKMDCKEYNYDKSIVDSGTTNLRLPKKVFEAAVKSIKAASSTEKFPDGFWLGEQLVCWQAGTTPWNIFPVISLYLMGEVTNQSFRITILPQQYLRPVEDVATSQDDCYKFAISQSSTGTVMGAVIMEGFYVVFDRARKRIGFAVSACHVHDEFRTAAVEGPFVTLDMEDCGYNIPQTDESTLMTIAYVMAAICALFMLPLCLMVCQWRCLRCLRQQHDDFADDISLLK

| IC50 (human recombinant BACE1) | IC50 (human recombinant BACE2) | IC50 [1] | IC50 (Recombinant Cat D) | IC50 (human recombinant BACE1; BACE1 FRET enzyme assay) | IC50 (human recombinant BACE2; BACE2 FRET enzyme assay) | IC50 ([1]; BACE1 cell-based assay) | IC50 (Recombinant Cat D; Cathepsin D FRET enzyme assay) | SMILES |
| --- | --- | --- | --- | --- | --- | --- | --- | --- |
| 0.0068 µM | 0.00709 µM | 0.0522 µM | 26.4 µM |  |  |  |  | NC1=N[C@](CF)(c2cc(NC(=O)c3ccc(Cl)cn3)ccc2F)[C@@H]2[C@H]3CSC[C@]32S1 (mixture of isomers) [Example 752, N-(3-((4S,4aR,7aS)-2-amino-4-(fluoromethyl)-4a,4b,5,7-tetrahydro-4H-thieno[3′,4′:2,3]cyclopropa[1,2-e][1,3]thiazin-4-yl)-4-fluorophenyl)-5-chloropicolinamide and N-(3-((4S,4aS,7aR)-2-amino-4-(fluoromethyl)-4a,4b,5,7-tetrahydro-4H-thieno[3′,4′:2,3]cyclopropa[1,2-e][1,3]thiazin-4-yl)-4-fluorophenyl)-5-chloropicolinamide] |
| 0.129 µM | 1.1 µM | 0.12 µM | > 400 µM |  |  |  |  | COC[C@]12C[C@H]1[C@@](C)(c1cc(NC(=O)c3cnc(OC(C)C(F)(F)F)cn3)ccc1F)N=C(N)S2 (mixture of isomers) [Example 968, N-(3-((1S,5S,6S)-3-amino-1-(methoxymethyl)-5-methyl-2-thia-4-azabicyclo[4.1.0]hept-3-en-5-yl)-4-fluorophenyl)-5-((1,1,1-trifluoropropan-2-yl)oxy)pyrazine-2-carboxamide] |
| 0.033 µM | 0.345 µM | 0.035 µM | > 400 µM |  |  |  |  | C=C[C@@H](C)Oc1cnc(C(=O)Nc2ccc(F)c([C@@]3(C)N=C(N)S[C@@]4(COC)C[C@H]43)c2)cn1 (mixture of isomers) [Example 1051, N-(3-((1S,5S,6S)-3-amino-1-(methoxymethyl)-5-methyl-2-thia-4-azabicyclo[4.1.0]hept-3-en-5-yl)-4-fluorophenyl)-5-(((1R)-1-methyl-2-propen-1-yl)oxy)-2-pyrazinecarboxamide, N-(3-((1S,5S,6S)-3-amino-1-(methoxymethyl)-5-methyl-2-thia-4-azabicyclo[4.1.0]hept-3-en-5-yl)-4-fluorophenyl)-5-(((1S)-1-methyl-2-propen-1-yl)oxy)-2-pyrazinecarboxamide] |
| 0.101 µM | 1.77 µM | 0.164 µM | 1940 µM |  |  |  |  | COC[C@]12C[C@H]1[C@@](C)(c1cc(NC(=O)c3cnc(O[C@@H](C)C(F)(F)F)cn3)ccc1F)N=C(N)S2 (single isomer, unassigned) [Example 995] |
| 0.123 µM | 0.807 µM | 0.12 µM | 1640 µM |  |  |  |  | COC[C@]12C[C@H]1[C@@](C)(c1cc(NC(=O)c3cnc(O[C@H](C)C(F)(F)F)cn3)ccc1F)N=C(N)S2 (single isomer, unassigned) [Example 996] |
|  |  |  |  | 0.0137 µM | 0.00616 µM | 0.0208 µM | 738 µM | NC1=N[C@](CF)(c2cc(Nc3nncc4cc(Br)cnc34)ccc2F)C2C[C@@H]2S1 (stereo in doubt) [Example 67, N-(3-((1S,5S,6S)-3-amino-5-(fluoromethyl)-2-thia-4-azabicyclo[4.1.0]hept-3-en-5-yl)-4-fluorophenyl)-3-bromopyrido[2,3-d]pyridazin-8-amine] |
|  |  |  |  | 0.114 µM | 0.271 µM | 22.6 µM | 2810 µM | NC1=N[C@](CF)(c2cc(Nc3nccc4nc(C(F)(F)F)cnc34)ccc2F)C2C[C@@H]2S1 (stereo in doubt) [Example 87, N-(3-((1S,5S,6S)-3-amino-5-(fluoromethyl)-2-thia-4-azabicyclo[4.1.0]hept-3-en-5-yl)-4-fluorophenyl)-2-(trifluoromethyl)pyrido[3,4-b]pyrazin-5-amine] |
|  |  |  |  | 0.0416 µM | 0.137 µM | 0.0264 µM | > 400 µM | COc1cnc2c(Nc3ccc(F)c([C@@]4(CF)N=C(N)S[C@H]5CC54)c3)ncnc2c1 (stereo in doubt) [Example 88, N-(3-((1S,5S,6S)-3-amino-5-(fluoromethyl)-2-thia-4-azabicyclo[4.1.0]hept-3-en-5-yl)-4-fluorophenyl)-7-methoxypyrido[3,2-d]pyrimidin-4-amine] |
|  |  |  |  | 0.00838 µM | 0.0108 µM | 0.00522 µM | 437 µM | Cc1cc(C#N)cnc1C(=O)Nc1ccc(F)c([C@@]2(CF)N=C(N)S[C@H]3C[C@H]32)c1 [Example 3, N-(3-((1S,5S,6S)-3-amino-5-(fluoromethyl)-2-thia-4-azabicyclo[4.1.0]hept-3-en-5-yl)-4-fluorophenyl)-5-cyano-3-methylpicolinamide] |
|  |  |  |  | 0.00188 µM |  | 0.0191 µM | 189 µM | COC[C@]12C[C@H]1[C@@](C)(c1cc(Nc3nccc4cc(Cl)cnc34)cc(F)c1F)N=C(N)S2 [Example 24, N-(3-((1S,5S,6S)-3-amino-1-(methoxymethyl)-5-methyl-2-thia-4-azabicyclo[4.1.0]hept-3-en-5-yl)-4,5-difluorophenyl)-3-chloro-1,7-naphthyridin-8-amine] |
|  |  |  |  | 0.0025 µM |  | 0.571 µM | 48.7 µM | CCOC(=O)[C@]12C[C@H]1[C@@](C)(c1cc(Nc3nccc4cc(Cl)cnc34)cc(F)c1F)N=C(N)S2 [Example 25, (1S,5S,6S)-ethyl 3-amino-5-(5-((3-chloro-1,7-naphthyridin-8-yl)amino)-2,3-difluorophenyl)-5-methyl-2-thia-4-azabicyclo[4.1.0]hept-3-ene-1-carboxylate] |
|  |  |  |  | 0.0235 µM |  | 0.013 µM | 33.5 µM | N#Cc1cnc2c(Nc3cc(F)c(F)c([C@@]4(CF)N=C(N)S[C@@H]5C[C@@H]54)c3)nccc2c1 [Example 27, 8-((3-((1R,5S,6R)-3-amino-5-(fluoromethyl)-2-thia-4-azabicyclo[4.1.0]hept-3-en-5-yl)-4,5-difluorophenyl)amino)-1,7-naphthyridine-3-carbonitrile] |
|  |  |  |  | 0.00152 µM | < 0.00203 µM | 0.00851 µM | 958 µM | C[C@]1(c2cc(Nc3nccc4cc(Cl)cnc34)cc(F)c2F)N=C(N)S[C@@]2(CO)C[C@H]21 [Example 30, ((1S,5S,6S)-3-amino-5-(5-((3-chloro-1,7-naphthyridin-8-yl)amino)-2,3-difluorophenyl)-5-methyl-2-thia-4-azabicyclo[4.1.0]hept-3-en-1-yl)methanol] |
|  |  |  |  | 0.00206 µM | 0.00109 µM | 0.00226 µM | 1400 µM | NC1=N[C@](CF)(c2cc(NC(=O)c3ccc(Cl)cn3)cc(F)c2F)[C@@H]2C[C@]2(CO)S1 [Example 31, N-(3-((1S,5S,6S)-3-amino-5-(fluoromethyl)-1-(hydroxymethyl)-2-thia-4-azabicyclo[4.1.0]hept-3-en-5-yl)-4,5-difluorophenyl)-5-chloropicolinamide] |
|  |  |  |  | 0.0212 µM | 0.304 µM | 0.0836 µM | 138 µM | C#CCOc1cnc2c(Nc3cc(F)c(F)c([C@@]4(C)N=C(N)S[C@H]5C[C@H]54)c3)nccc2c1 [Example 32, N-(3-((1S,5S,6S)-3-amino-5-methyl-2-thia-4-azabicyclo[4.1.0]hept-3-en-5-yl)-4,5-difluorophenyl)-3-(2-propyn-1-yloxy)-1,7-naphthyridin-8-amine] |
| 0.0078 µM | 0.152 µM | 0.0095 µM |  |  |  |  |  | C#CCCOc1cnc(C(=O)Nc2ccc(F)c([C@@]3(C)N=C(N)S[C@@]4(COC)C[C@H]43)c2)cn1 [Example 1048, N-(3-((1S,5S,6S)-3-amino-1-(methoxymethyl)-5-methyl-2-thia-4-azabicyclo[4.1.0]hept-3-en-5-yl)-4-fluorophenyl)-5-(3-butyn-1-yloxy)-2-pyrazinecarboxamide] |
